Measurements taken from PubChem BioAssay (NCI).
“And” between values parts separate entries of the source, which are not always exact repeats. Equal values may be shown once.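 Method: 48-hour compound exposure of cells in 96-well plates, five concentrations, linear interpolation of endpoints. GI50: concentration for 50% inhibition of growth. TGI: total growth inhibition.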

Assays:
Assay in all cases: NCI-60 cell line screen, 48 h
MDA-MB-435 = tested on: MDA-MB-435
OVCAR-5 ovarian = tested on: OVCAR-5 ovarian
HCC-2998 colon = tested on: HCC-2998 colon
SW-620 colon = tested on: SW-620 colon
NCI-H460 lung = tested on: NCI-H460 lung
EKVX NSCLC = tested on: EKVX NSCLC
NCI-H226 lung = tested on: NCI-H226 lung
SK-MEL-28 melanoma = tested on: SK-MEL-28 melanoma
TK-10 renal = tested on: TK-10 renal
SF-539 CNS = tested on: SF-539 CNS

| Structure (SMILES) | GI50 (MDA-MB-435) | TGI (MDA-MB-435) | GI50 (OVCAR-5 ovarian) | TGI (OVCAR-5 ovarian) | GI50 (HCC-2998 colon) | TGI (HCC-2998 colon) | GI50 (SW-620 colon) | TGI (SW-620 colon) | GI50 (NCI-H460 lung) | TGI (NCI-H460 lung) | GI50 (EKVX NSCLC) | TGI (EKVX NSCLC) | GI50 (NCI-H226 lung) | TGI (NCI-H226 lung) | GI50 (SK-MEL-28 melanoma) | TGI (SK-MEL-28 melanoma) | GI50 (TK-10 renal) | TGI (TK-10 renal) | GI50 (SF-539 CNS) | TGI (SF-539 CNS) |
| --- | --- | --- | --- | --- | --- | --- | --- | --- | --- | --- | --- | --- | --- | --- | --- | --- | --- | --- | --- | --- |
| Cc1ccccc1NC(=O)c1sc2nc(C)c(C(=O)/C=C/c3ccccc3)cc2c1N | 0.895 µM | 2.33 µM | 1.01 µM | 2.62 µM | 0.913 µM | 1.67 µM | 1 µM | 2.45 µM | 1.25 µM | 3.22 µM | 3.86 µM | 11.1 µM | 1.07 µM | 2.35 µM | 1.26 µM | 3.72 µM | 1.55 µM | 6.04 µM | 0.977 µM | 1.96 µM |
| CC(C)(C)C1CCC2c3c([nH]c4ccccc34)C3C(=O)N(c4ccc(Cl)cc4)C(=O)C3C2C1 (centres undefined) | > 100 µM | > 100 µM |  | 0.256 µM | 22.1 µM and > 10 µM | 81.6 µM and > 10 µM | 53.9 µM and > 10 µM | > 100 µM | 37.2 µM and > 10 µM | > 100 µM | 63.9 µM and > 10 µM | > 100 µM | 72.8 µM and > 10 µM | > 100 µM | > 100 µM | > 100 µM | > 100 µM | > 100 µM | > 100 µM | > 100 µM |
